This is an account of results in patent publication US11136329B2, “JAK inhibitors” (Vimalan Biosciences, Inc., priority 2019, dated 2021).

Format in all cases: biochemical
One assay concerns the target JAK2 (Homo sapiens (Human), UniProt O60674). Put plainly: JAK/TYK2 assay (Kinase Glo luminescence), JAK2. To be noted: 0.8 nM enzyme, 2 uM ATP, 4 uM pEY, 1 hr. Summed up: (§1)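 Each kinase reaction contains enzyme, substrate mixture and test compound at final 10000–0.51 nM in a 3-fold, 10-point series. Incubation runs 1-2 hours at 25° C before Kinase Glo reagent terminates it and generates the luminescent read-out.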

In another assay the target is JAK3 (Homo sapiens (Human), UniProt P52333). Put plainly: JAK/TYK2 assay (Kinase Glo luminescence), JAK3. To be noted: 1.5 nM enzyme, 2 uM ATP, 4 uM pEY, 1 hr. Summed up:
as §1
On the technique in general: Kinase-Glo measures the ATP left after a reaction by luminescence.

The next assay has as its target TYK2 (Homo sapiens (Human), UniProt P29597). Description: JAK/TYK2 assay (Kinase Glo luminescence), TYK2. To be noted: 9 nM enzyme, 2 uM ATP, 30 uM IRS-1, 1 hr. The essentials: as §1
For another assay, the target named is JAK1 (Homo sapiens (Human), UniProt P23458). Put plainly: JAK/TYK2 assay (Kinase Glo luminescence), JAK1. Conditions: 7.5 nM enzyme, 2 uM ATP, 30 uM IRS-1, 1 hr. The essentials: as §1
JAK1, sequence (P23458 whole entry, species assumed): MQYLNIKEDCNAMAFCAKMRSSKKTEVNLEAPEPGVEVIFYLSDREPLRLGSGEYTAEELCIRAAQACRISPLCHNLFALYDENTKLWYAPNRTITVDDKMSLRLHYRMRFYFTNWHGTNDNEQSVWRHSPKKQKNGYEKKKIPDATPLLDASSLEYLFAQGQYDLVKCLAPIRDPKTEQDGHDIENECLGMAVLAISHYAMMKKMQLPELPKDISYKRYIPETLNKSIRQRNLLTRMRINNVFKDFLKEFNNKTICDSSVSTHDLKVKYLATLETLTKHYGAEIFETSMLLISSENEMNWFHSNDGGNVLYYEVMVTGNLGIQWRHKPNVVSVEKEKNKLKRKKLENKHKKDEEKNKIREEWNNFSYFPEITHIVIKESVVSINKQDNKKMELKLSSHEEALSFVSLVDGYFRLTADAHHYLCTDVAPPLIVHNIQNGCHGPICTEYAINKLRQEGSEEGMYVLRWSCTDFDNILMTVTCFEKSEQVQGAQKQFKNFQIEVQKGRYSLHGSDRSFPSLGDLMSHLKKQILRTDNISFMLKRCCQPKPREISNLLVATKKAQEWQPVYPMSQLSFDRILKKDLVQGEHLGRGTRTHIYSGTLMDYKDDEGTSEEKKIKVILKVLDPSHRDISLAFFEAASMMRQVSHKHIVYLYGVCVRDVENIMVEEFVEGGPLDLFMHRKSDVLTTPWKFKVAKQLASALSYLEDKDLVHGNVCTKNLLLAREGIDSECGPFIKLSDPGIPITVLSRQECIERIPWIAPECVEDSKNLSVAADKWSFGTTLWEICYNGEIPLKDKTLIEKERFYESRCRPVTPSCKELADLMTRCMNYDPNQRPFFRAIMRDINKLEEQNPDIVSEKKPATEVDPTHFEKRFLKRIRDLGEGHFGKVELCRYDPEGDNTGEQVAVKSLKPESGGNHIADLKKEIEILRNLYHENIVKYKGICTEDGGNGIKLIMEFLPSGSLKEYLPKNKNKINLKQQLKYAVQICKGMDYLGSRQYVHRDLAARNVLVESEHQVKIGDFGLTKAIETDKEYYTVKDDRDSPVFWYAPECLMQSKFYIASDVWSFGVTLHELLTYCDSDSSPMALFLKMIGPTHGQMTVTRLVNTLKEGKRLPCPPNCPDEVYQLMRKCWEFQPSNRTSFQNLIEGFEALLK

JAK2, sequence (O60674 whole entry, species assumed): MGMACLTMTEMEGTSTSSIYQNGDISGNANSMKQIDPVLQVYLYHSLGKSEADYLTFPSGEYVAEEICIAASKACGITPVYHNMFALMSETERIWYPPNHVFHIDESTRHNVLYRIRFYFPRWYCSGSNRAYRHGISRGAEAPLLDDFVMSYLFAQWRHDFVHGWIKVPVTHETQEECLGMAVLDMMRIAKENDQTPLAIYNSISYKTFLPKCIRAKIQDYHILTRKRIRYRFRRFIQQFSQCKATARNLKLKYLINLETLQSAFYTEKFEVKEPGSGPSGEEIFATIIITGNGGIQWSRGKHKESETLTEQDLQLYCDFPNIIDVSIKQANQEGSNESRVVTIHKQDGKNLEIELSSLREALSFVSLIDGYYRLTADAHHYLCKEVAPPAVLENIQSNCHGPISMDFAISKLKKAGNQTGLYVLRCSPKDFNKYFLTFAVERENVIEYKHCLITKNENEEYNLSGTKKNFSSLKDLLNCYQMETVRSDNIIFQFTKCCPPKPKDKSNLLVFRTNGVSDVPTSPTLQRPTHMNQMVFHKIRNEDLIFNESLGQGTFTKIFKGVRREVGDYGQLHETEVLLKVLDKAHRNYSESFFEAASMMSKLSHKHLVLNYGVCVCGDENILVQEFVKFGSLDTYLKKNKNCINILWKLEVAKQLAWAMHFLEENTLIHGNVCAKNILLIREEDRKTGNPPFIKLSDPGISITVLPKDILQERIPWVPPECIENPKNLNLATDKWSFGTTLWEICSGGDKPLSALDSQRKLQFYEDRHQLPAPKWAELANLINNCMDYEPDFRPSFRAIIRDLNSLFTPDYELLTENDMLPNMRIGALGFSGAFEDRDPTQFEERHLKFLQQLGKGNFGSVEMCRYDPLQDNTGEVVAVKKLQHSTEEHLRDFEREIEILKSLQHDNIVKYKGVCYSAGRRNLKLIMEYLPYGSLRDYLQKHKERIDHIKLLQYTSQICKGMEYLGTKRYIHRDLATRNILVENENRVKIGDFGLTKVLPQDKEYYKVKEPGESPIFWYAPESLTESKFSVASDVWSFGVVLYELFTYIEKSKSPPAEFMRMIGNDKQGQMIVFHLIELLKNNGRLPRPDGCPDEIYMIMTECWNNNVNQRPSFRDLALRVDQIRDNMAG
JAK3, sequence (P52333 whole entry, species assumed): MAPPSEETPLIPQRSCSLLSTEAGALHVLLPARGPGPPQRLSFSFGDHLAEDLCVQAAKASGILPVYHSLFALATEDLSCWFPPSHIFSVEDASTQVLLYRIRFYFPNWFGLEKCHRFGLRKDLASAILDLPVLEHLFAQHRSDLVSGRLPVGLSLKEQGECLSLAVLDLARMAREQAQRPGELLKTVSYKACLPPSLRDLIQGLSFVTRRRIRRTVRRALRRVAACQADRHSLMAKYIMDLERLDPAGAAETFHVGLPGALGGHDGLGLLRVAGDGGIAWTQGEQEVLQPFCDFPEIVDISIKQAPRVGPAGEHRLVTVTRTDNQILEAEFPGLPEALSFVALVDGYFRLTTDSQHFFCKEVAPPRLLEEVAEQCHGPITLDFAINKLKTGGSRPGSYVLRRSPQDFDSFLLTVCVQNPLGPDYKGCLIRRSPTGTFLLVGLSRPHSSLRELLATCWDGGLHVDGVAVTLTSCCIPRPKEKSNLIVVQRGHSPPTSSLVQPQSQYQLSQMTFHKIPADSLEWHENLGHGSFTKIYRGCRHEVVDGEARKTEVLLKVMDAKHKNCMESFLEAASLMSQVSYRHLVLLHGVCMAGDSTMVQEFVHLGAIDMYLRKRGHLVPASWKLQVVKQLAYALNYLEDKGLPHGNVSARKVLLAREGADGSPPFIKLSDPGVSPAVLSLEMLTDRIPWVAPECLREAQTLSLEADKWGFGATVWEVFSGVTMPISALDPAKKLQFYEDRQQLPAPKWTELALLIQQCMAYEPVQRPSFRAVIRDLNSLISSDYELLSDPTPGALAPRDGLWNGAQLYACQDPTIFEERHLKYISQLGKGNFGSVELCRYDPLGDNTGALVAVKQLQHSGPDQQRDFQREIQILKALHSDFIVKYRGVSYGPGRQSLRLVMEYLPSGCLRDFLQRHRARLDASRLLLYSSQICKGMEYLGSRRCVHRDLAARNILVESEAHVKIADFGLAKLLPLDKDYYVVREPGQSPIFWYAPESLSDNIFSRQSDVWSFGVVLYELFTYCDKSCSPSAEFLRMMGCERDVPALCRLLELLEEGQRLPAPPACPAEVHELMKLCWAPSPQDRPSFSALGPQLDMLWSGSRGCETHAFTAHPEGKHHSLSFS
TYK2, sequence (P29597 whole entry, species assumed): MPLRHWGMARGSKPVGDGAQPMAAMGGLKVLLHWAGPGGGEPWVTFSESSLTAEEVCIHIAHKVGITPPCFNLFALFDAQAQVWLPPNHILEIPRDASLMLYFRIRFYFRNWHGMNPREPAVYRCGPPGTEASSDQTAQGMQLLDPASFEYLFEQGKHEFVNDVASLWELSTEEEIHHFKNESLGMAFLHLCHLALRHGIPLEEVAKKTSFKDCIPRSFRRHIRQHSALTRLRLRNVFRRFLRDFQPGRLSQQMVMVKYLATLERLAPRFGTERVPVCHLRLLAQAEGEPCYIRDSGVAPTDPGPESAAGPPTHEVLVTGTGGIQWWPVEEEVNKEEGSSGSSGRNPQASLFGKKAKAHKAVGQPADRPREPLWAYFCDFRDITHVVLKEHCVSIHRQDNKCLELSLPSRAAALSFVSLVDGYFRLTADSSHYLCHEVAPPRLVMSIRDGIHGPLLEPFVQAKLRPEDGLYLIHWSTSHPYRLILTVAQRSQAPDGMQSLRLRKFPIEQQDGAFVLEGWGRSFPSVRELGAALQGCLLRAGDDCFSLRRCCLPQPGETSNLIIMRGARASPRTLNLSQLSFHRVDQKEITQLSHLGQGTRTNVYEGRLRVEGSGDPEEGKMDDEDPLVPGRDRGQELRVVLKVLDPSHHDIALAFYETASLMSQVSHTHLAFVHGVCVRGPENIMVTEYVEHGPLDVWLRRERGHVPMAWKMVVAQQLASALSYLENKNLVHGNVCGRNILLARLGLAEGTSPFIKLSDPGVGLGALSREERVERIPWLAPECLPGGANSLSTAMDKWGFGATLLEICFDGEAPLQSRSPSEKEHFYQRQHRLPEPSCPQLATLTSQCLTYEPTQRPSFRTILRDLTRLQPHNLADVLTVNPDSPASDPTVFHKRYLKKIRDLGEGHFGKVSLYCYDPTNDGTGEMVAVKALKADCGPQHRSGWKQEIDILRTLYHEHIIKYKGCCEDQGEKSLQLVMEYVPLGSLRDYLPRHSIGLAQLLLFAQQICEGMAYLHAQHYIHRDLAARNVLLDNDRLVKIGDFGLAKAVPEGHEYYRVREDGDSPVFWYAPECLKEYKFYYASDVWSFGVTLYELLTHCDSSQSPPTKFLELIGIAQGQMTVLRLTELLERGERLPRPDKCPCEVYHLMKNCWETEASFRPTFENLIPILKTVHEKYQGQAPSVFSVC

Broadly, the IC50 is the concentration that inhibits the measured activity by half. Read a low IC50 as greater potency. Consider `CCC(C)OC(=O)Cn1cc(Nc2ncc3ccn(CC(CC)C(C)C)c3n2)cn1` (centres unmarked) [Compound 107, sec-butyl 2-(4-((7-(2-ethyl-3-methylbutyl)-7H-pyrrolo[2,3-d]pyrimidin-2-yl)amino)-1H-pyrazol-1-yl)acetate], for which the half-maximal inhibitory concentration (IC50) at JAK2, against JAK3, at TYK2 and on JAK1 was less than 100 nM each time.
Take `CCOC(=O)Cn1cc(Nc2ncc3ccn(CC4CCCCC4(F)F)c3n2)cn1` (centres unmarked) [Compound 35, ethyl 2-(4-((7-((2,2-difluorocyclohexyl)methyl)-7H-pyrrolo[2,3-d]pyrimidin-2-yl)amino)-1H-pyrazol-1-yl)acetate]: the IC50 at JAK2, at JAK3, against TYK2 and on JAK1 was less than 100 nM throughout.
`CCOC(=O)Cn1cc(Nc2ncc3ccn(CC45CC6CC(CC(C6)C4)C5)c3n2)cn1` [Compound 34, ethyl 2-(4-((7-(((s,3s)-adamantan-1-yl)methyl)-7H-pyrrolo[2,3-d]pyrimidin-2-yl)amino)-1H-pyrazol-1-yl)acetate]: the IC50 is less than 100 nM on JAK2, less than 100 nM on JAK3, less than 100 nM against TYK2 and 100 to 1000 nM on JAK1.
Take `CCC(CC)Cn1ccc2cnc(Nc3cnn(CC(=O)OC4CC(C#N)C4)c3)nc21` (centres unmarked) [Compound 91, 3-cyanocyclobutyl 2-(4-((7-(2-ethylbutyl)-7H-pyrrolo[2,3-d]pyrimidin-2-yl)amino)-1H-pyrazol-1-yl)acetate]: the IC50 against JAK2, against JAK3, on TYK2 and against JAK1 was less than 100 nM in each case.
Consider `CCOC(=O)Cn1cc(Nc2ncc3ccn(CC4(C)CCCC4)c3n2)cn1` [Compound 41, ethyl 2-(4-((7-((1-methylcyclopentyl)methyl)-7H-pyrrolo[2,3-d]pyrimidin-2-yl)amino)-1H-pyrazol-1-yl)acetate], for which the IC50 against JAK2, at JAK3, against TYK2 and against JAK1 was less than 100 nM in each case.
Regarding `CCOC(=O)Cn1cc(Nc2ncc3ccn(CC(C(C)C)C(C)C)c3n2)cn1` [Compound 50, ethyl 2-(4-((7-(2-isopropyl-3-methylbutyl)-7H-pyrrolo[2,3-d]pyrimidin-2-yl)amino)-1H-pyrazol-1-yl)acetate], the 50% inhibitory concentration (IC50) against JAK2, against JAK3, at TYK2 and on JAK1 was less than 100 nM throughout.
Regarding `CC(C)OC(=O)Cn1cc(Nc2ncc3ccn(C[C@H]4CC[C@H](O)CC4)c3n2)cn1` [Compound 122, isopropyl 2-(4-((7-(((1r,4r)-4-hydroxycyclohexyl)methyl)-7H-pyrrolo[2,3-d]pyrimidin-2-yl)amino)-1H-pyrazol-1-yl)acetate], the IC50 against JAK2, against JAK3, against TYK2 and at JAK1 was less than 100 nM in each case.
On to `CC[C@@H](Cn1ccc2cnc(Nc3cnn(CC(=O)OC(C)C)c3)nc21)C(C)C` [Compound 132, isopropyl (R)-2-(4-((7-(2-ethyl-3-methylbutyl)-7H-pyrrolo[2,3-d]pyrimidin-2-yl)amino)-1H-pyrazol-1-yl)acetate], for which the IC50 against JAK2, at JAK3, on TYK2 and at JAK1 was less than 100 nM throughout.
Regarding `CCOC(=O)Cn1ccc(Nc2ncc3ccn(CC(CC)CC)c3n2)n1` [Compound 44, ethyl 2-(3-((7-(2-ethylbutyl)-7H-pyrrolo[2,3-d]pyrimidin-2-yl)amino)-1H-pyrazol-1-yl)acetate], the IC50 on JAK2 fell in the range of 100 to 1000 nM; on JAK3, 100 to 1000 nM; at TYK2, 100 to 1000 nM; against JAK1 it was 1000 to 10000 nM.
Regarding `CCOC(=O)C(C)n1cc(Nc2ncc3ccn(CC(CC)CC)c3n2)cn1` (centres unmarked) [Compound 28, ethyl 2-(4-((7-(2-ethylbutyl)-7H-pyrrolo[2,3-d]pyrimidin-2-yl)amino)-1H-pyrazol-1-yl)propanoate], the IC50 at JAK2, at JAK3, against TYK2 and at JAK1 was less than 100 nM in each case.
`O=C(O)Cn1cc(Nc2ncc3ccn(CC4CCCCC4(F)F)c3n2)cn1` (centres unmarked) [Compound 37, 2-(4-((7-((2,2-difluorocyclohexyl)methyl)-7H-pyrrolo[2,3-d]pyrimidin-2-yl)amino)-1H-pyrazol-1-yl)acetic acid]: the IC50 against JAK2, against JAK3, at TYK2 and against JAK1 was less than 100 nM in each case.
Regarding `O=C(O)CCn1cc(Nc2ncc3ccn(C[C@H]4CC[C@H](O)CC4)c3n2)cn1` [Compound 117, 3-(4-((7-(((1r,4r)-4-hydroxycyclohexyl)methyl)-7H-pyrrolo[2,3-d]pyrimidin-2-yl)amino)-1H-pyrazol-1-yl)propanoic acid], the IC50 at JAK2, on JAK3, against TYK2 and against JAK1 was less than 100 nM in each case.
As for `CC(C(=O)O)n1cc(Nc2ncc3ccn(C[C@H]4CC[C@H](O)CC4)c3n2)cn1` (some centres unmarked) [Compound 116, 2-(4-((7-(((1r,4r)-4-hydroxycyclohexyl)methyl)-7H-pyrrolo[2,3-d]pyrimidin-2-yl)amino)-1H-pyrazol-1-yl)propanoic acid], the half-maximal inhibitory concentration (IC50) against JAK2, at JAK3, against TYK2 and against JAK1 was less than 100 nM in each case.
`CCC(Cn1ccc2cnc(Nc3cnn(CC(=O)OC[C@H](C)O)c3)nc21)C(C)C` (stereo partly drawn) [Compound 112, (S)-2-hydroxypropyl 2-(4-((7-(2-ethyl-3-methylbutyl)-7H-pyrrolo[2,3-d]pyrimidin-2-yl)amino)-1H-pyrazol-1-yl)acetate]: the IC50 against JAK2, at JAK3, on TYK2 and against JAK1 was less than 100 nM in each case.
Turning to `CCOC(=O)c1ccc(Nc2ncc3ccn(CC(CC)CC)c3n2)cc1` [Compound 26, ethyl 4-((7-(2-ethylbutyl)-7H-pyrrolo[2,3-d]pyrimidin-2-yl)amino)benzoate], the IC50 against JAK2, at JAK3, on TYK2 and against JAK1 was 100 to 1000 nM in each case.
Turning to `CCC(Cn1ccc2cnc(Nc3cnn(CC(=O)OCCO)c3)nc21)C(C)C` (centres unmarked) [Compound 85, 2-hydroxyethyl 2-(4-((7-(2-ethyl-3-methylbutyl)-7H-pyrrolo[2,3-d]pyrimidin-2-yl)amino)-1H-pyrazol-1-yl)acetate], the concentration for half-maximal inhibition (IC50) on JAK2, against JAK3, on TYK2 and on JAK1 was less than 100 nM each time.
Regarding `CCC(Cn1ccc2cnc(Nc3cnn(CC(=O)OC[C@@H](C)O)c3)nc21)C(C)C` (stereo partly drawn) [Compound 110, (R)-2-hydroxypropyl 2-(4-((7-(2-ethyl-3-methylbutyl)-7H-pyrrolo[2,3-d]pyrimidin-2-yl)amino)-1H-pyrazol-1-yl)acetate], the IC50 at JAK2, on JAK3, at TYK2 and against JAK1 was less than 100 nM each time.
`CCC(CC)Cn1ccc2cnc(Nc3cnn(CC(=O)OCCN(C)C)c3)nc21` [Compound 103, 2-(dimethylamino)ethyl 2-(4-((7-(2-ethylbutyl)-7H-pyrrolo[2,3-d]pyrimidin-2-yl)amino)-1H-pyrazol-1-yl)acetate]: the IC50 on JAK2, against JAK3, against TYK2 and against JAK1 was less than 100 nM throughout.
On to `CC[C@H](Cn1ccc2cnc(Nc3cnn(C(CC(C)(C)O)C(=O)O)c3)nc21)C(C)C` (stereo partly drawn) [Compound 147, 2-(4-((7-((S)-2-ethyl-3-methylbutyl)-7H-pyrrolo[2,3-d]pyrimidin-2-yl)amino)-1H-pyrazol-1-yl)-4-hydroxy-4-methylpentanoic acid], for which the IC50 against JAK2, at JAK3, at TYK2 and against JAK1 was less than 100 nM in each case.
For `CC[C@H](Cn1ccc2cnc(Nc3cnn(C4CC(C)(C)OC4=O)c3)nc21)C(C)C` (stereo partly drawn) [Compound 144, 3-(4-((7-((S)-2-ethyl-3-methylbutyl)-7H-pyrrolo[2,3-d]pyrimidin-2-yl)amino)-1H-pyrazol-1-yl)-5,5-dimethyldihydrofuran-2(3H)-one], the IC50 against JAK2, against JAK3, on TYK2 and on JAK1 was less than 100 nM in each case.
For `CC(C)OC(=O)Cn1cc(Nc2ncc3ccn(C[C@@H](CCN(C)C)C(C)C)c3n2)cn1` [Compound 96, isopropyl (S)-2-(4-((7-(4-(dimethylamino)-2-isopropylbutyl)-7H-pyrrolo[2,3-d]pyrimidin-2-yl)amino)-1H-pyrazol-1-yl)acetate], the IC50 against JAK2, against JAK3, against TYK2 and against JAK1 was 100 to 1000 nM in each case.
Take `CC[C@H](Cn1ccc2cnc(Nc3cnn(CC(=O)O)c3)nc21)C(C)C` [Compound 104, (S)-2-(4-((7-(2-ethyl-3-methylbutyl)-7H-pyrroIo[2,3-d]pyrimidin-2-yl)amino)-1H-pyrazol-1-yl)acetic acid]: the concentration for half-maximal inhibition (IC50) at JAK2, against JAK3, at TYK2 and against JAK1 was less than 100 nM throughout.
Regarding `CCOC(=O)Cn1cc(Nc2ncc3ccn(CC4(C)CCCCC4)c3n2)cn1` [Compound 47, ethyl 2-(4-((7-((1-methylcyclohexyl)methyl)-7H-pyrrolo[2,3-d]pyrimidin-2-yl)amino)-1H-pyrazol-1-yl)acetate], the half-inhibitory concentration (IC50) at JAK2, against JAK3, against TYK2 and against JAK1 was less than 100 nM in each case.
